Patent US20180263940A1, “TREATMENT OF SKIN CONDITIONS” (priority 2015, published 2018)
Entries after “also recorded” stand apart in the source; their conditions may differ.

How the values were obtained:
[1] = tested on: naturally parakeratotic tail scale skin; assay: Ex vivo mouse tail scale assay; format: cell-based; conditions: 4 days ex vivo
Description: 7-9 week old wild type mice of either gender were sacrificed and the tail skin tissue harvested then cultured 4 days on a porous membrane chamber insert with the epidermis exposed to air and dermis side in contact with media drawn through the porous membrane. Various concentrations and combinations of Mesalamine (2 mM and 5 mM) and Acitretin (1 μM) were added to the media or media alone used as a control. Media was refreshed after 48 hrs. Skins were then harvested on the 4 th day and fixed in 4% PFA overnight then stored in 80% Ethanol until processed and embedded in paraffin wax. 8 micron sections were then cut and stained with Haematoxylin and Eosin and analysed. Images were taken from at least 10 scales from 3 mice per treatment condition and the % orthokeratosis measured as defined in the figure legend for FIG. 13.

[2] = tested on: E16.5 embryonic back skin (Abca12 Lx12/Lx12 and Lx12/+); assay: Harlequin Ichthyosis ex vivo embryo whole mount skin assay, cornified envelope thickening; format: cell-based, mouse; conditions: 10 mM Mesalamine or 1 uM Acitretin, 4 days ex vivo
Description: Embryonic back skin was collected at E16.5 from across 3 litters generated by Abca12 Lx12/+ cross Abca12 Lx12/+ matings to generate Harlequin Ichthyosis embryos Abca12 Lx12/Lx12 and control siblings Abca12 Lx12/+ and Abca12+/+. The embryonic skin was then cultured 4 days on a porous membrane chamber insert with the epidermis exposed to air and dermis side in contact with media drawn through the porous membrane to permit maturation and adaptation to air. 10 mM Mesalamine or 1 uM Acitretin was supplied in the culture media and media refreshed at 48 hrs. Vehicle samples were left without drug treatment. Skins were then harvested on the 4th day and fixed in 4% PFA for 3-4 hrs then stored in 80% Ethanol until processed and embedded in paraffin wax. 8 micron sections were then cut and stained with Haematoxylin and Eosin and analysed. The percentage of skin thickness accounted for by the cornified envelope (cornified layer) was measured and results normalised as a fold change over the vehicle-treated control siblings in each assay. Wild type siblings were under represented in these litters so phenotypically normal heterozygote siblings were used as controls.

[3] = tested on: E16.5 embryonic mouse dorsal skin (Lx12/Lx12 HI mutant, Lx12/+, +/+); assay: Ex vivo chamber assay of E16.5 embryonic mouse dorsal skin during Harlequin Ichthyosis (HI) disease acquisition, H&E and immunofluorescent staining; format: cell-based; conditions: second E16.5 litter, 1 or 10 mM, 4 days ex vivo
GRHL3 −/− epidermis = assay: Ex vivo whole mount assay of GRHL3 -/- skin (proxy model of Lamellar Ichthyosis), cornified layer thickness; format: cell-based, mouse; conditions: E16.5, 10 mM, 4 days ex vivo
Description: Embryonic back skin was collected at E16.5 from litters generated by GRHL3+/− cross Abca12 GRHL3+/− matings to generate Ichthyosis embryos GRHL3 −/− and control siblings GRHL3+/− and GRHL3+/+. The embryonic skin was then cultured 4 days on a porous membrane chamber insert with the epidermis exposed to air and dermis side in contact with media drawn through the porous membrane to permit maturation and adaptation to air. Skins were then harvested and fixed in 4% PFA for 3-4 hrs then stored in 80% Ethanol until processed and embedded in paraffin wax. 8 micron sections were then cut and stained with Haematoxylin and Eosin and analysed.

[4] = tested on: E18.5 embryonic mouse dorsal skin (Lx12/Lx12 HI mutant, Lx12/+, +/+); assay: Ex vivo chamber assay of E18.5 embryonic mouse dorsal skin after HI disease acquisition, H&E; format: cell-based; conditions: 4 days ex vivo
Description: Representative Haematoxylin and Eosin staining of embryonic mouse dorsal skin from two E18.5 litters, cultured ex vivo for 4 days on chamber inserts, with 1 or 10 mM mesalamine in standard culture media or vehicle alone is shown in FIG. 9. +/+ presents wild type skin. Lx12/Lx12 represents the HI mutant skin and Lx12/+ represents seemingly normal skin carrying the recessive HI mutant allele. Note once again the abnormality observed in the spinous layer, loss of the granular layer and proportional thickening of the stratum corneum in Lx12/Lx12 (HI) vehicle treated skins. Lx12/+ skins also appeared slightly abnormal relative to +/+ vehicle treated skins. […] Images are repeated in grayscale.

[5] = tested on: E16.5 embryonic mouse dorsal skin (Lx12/Lx12 HI mutant, Lx12/+, +/+); assay: Ex vivo chamber assay of E16.5 embryonic mouse dorsal skin during Harlequin Ichthyosis (HI) disease acquisition, H&E and immunofluorescent staining; format: cell-based
Source text: The mouse strain ‘Abca12^tm1Lex’ NIH-0129 was obtained from Lexicon genetics and are referred to herein as Abca12Lx12/Lx12, or simply Lx12/Lx12, mice. These mice have a puromycin selection cassette-mediated exon 8 disruption and recapitulate the features of HI akin to other Abca12 mutant strains. All animal procedures complied with standards set under Australian guidelines for animal welfare and experiments were subject to Monash University animal welfare ethics review panels.
Anti-cleaved caspase 3 (#9664P) 1:100 (IHC) Cell Signalling Technologies, USA. Anti-filaggrin (PRB-417P) 1: 1000 (IHC) Covance, USA. Anti-involucrin (PRB-140C) 1: 1000 (IHC) Covance, USA. Antikeratin 10 (PRB-159P) 1: 500 (IHC) Covance, USA. Antikeratin 10 (sc-23877) 1: 100 (IHC) Santa Cruz Biotechnology USA. Anti-keratin 14 (LL002) (ab7800) 1: 250-1000 (IHC) Abcam, UK. Anti-loricrin (PRB-145P) 1: 1000 (IHC) Covance, USA. Molecular Probes AlexaFluor A488 and 555 secondary antibodies raised in Donkey, against rabbit or mouse, were used at 1: 600, from Life Technologies. Nuclei stains used included DAPI (Sigma-Aldrich) 1: 1000. DAB staining was performed by the Monash Histology Platform using Leica autostainers and Dako products.
The ability of mesalamine to rescue the impaired differentiation in an HI mouse model, which represents an extremely severe inflammatory skin disease, was tested. Embryonic back skins at E16.5 were harvested from a litter containing wild type, heterozygous and HI embryos. The skin was divided into two pieces and each cultured for 4 days in a standard ex vivo chamber assay, where the skin rests dermis-side down on a chamber insert membrane and draws cell culture media up from the below well, forming an air face on the epidermis side and liquid face for the dermal side, similar to the normal skin environment. Mesalamine was added in the media of one of each pair of skins at 10 mM (the active concentration determined to have most impact in the gut for intestinal diseases).

[6] = Harlequin Ichthyosis (Lx12/Lx12) skins
[7] = control heterozygous Lx12/+ skins
[8] = Lx12/+ skin, 10 mM, 4 days ex vivo
[9] = Lx12/Lx12 skin, 10 mM, 4 days ex vivo

COc1cc(C)c(/C=C/C(C)=C/C=C/C(C)=C/C(=O)O)c(C)c1C [Acitretin]
Orthokeratosis ([1]; 1 μM Acitretin): promoted orthokeratosis
Cornified layer proportion of skin thickness [2, 6]: no significant effect
Cornified layer proportion of skin thickness [2, 7]: no significant effect

Nc1ccc(O)c(C(=O)O)c1 [Mesalamine, 5-aminosalicylic acid]
Orthokeratosis compared with 1 μM Acitretin ([1]; 2 mM Mesalamine): performing similarly to 1 μM Acitretin
Orthokeratosis ([1]; 2 mM and 5 mM Mesalamine in the culture medium): dose dependent increase in orthokeratosis
Epidermis morphology (Haematoxylin and Eosin) [3]: acquires a more-normal appearance
Cornified layer proportion of skin thickness [2, 6]: reduced the cornified layer proportion to vehicle control levels
Cornified layer proportion of skin thickness [2, 7]: reduced the thickness
Cornified layer thickening (GRHL3 −/− epidermis): reduced hyper-thickening of the cornified layer; also recorded: loss of thickening
Epidermis morphology (Haematoxylin and Eosin) ([4]; Lx12/Lx12 (HI) skin, E18.5, 1 mM): acquires a more-normal appearance
Epidermis morphology (Haematoxylin and Eosin) ([4]; all genotypes, E18.5, 10 mM): reducing the keratinocytes accumulating in the spinous layers
Skin differentiation defects in HI ([5]; 10 mM in media, pair matched skins across genotypes): significantly rescued
Epidermis morphology (Haematoxylin and Eosin) ([5]; +/+ wild type skin, 10 mM, 4 days ex vivo): did not however appear to greatly effect
Apoptosis (cleaved-Caspase-3 positive cells) ([5]; Lx12/+ and Lx12/Lx12 skin, 10 mM, 4 days ex vivo): apoptosis is reduced
Granular layer Filaggrin (FLG) [5, 8]: restored
Keratin 10 (K10) positive keratinocytes [5, 8]: revert to normal levels
Epidermis morphology (Haematoxylin and Eosin) ([5]; Lx12/Lx12 (HI) skin, 10 mM, 4 days ex vivo): acquires a more-normal appearance
Granular layer Filaggrin (FLG) [5, 9]: partially restored
Involucrin (INV) expression [5, 9]: a more organised, and delayed (granular layer) expression
Keratin 10 (K10) positive keratinocytes [5, 9]: some modest improvement
Loricrin (LOR) expression [5, 9]: a more normal, predominantly granular layer expression
